# Data: US20110014164A1, “EFFICIENT INDUCTION OF PLURIPOTENT STEM CELLS USING SMALL MOLECULE COMPOUNDS” (PRESIDENT AND FELLOWS OF HARVARD COLLEGE, priority 2008, published 2011)
# Like-named read-outs stand apart in the source and are kept apart here.
# B1: BMP4: recombinant human Bmp4 from Roche (protein, UniProt P12644 293-408, looked up)
# Bone morphogenetic protein 4: SPKHHSQRARKKNKNCRRHSLYVDFSDVGWNDWIVAPPGYQAFYCHGDCPFPLADHLNSTNHAIVQTLVNSVNSSIPKACCVPTELSAISMLYLDEYDKVVLKNYQEMVVEGCGCR
# Columns and labels:
# [1] = tested on: MEFs infected with the four factors (Oct4, Sox2, Klf4 and c-Myc); assay type: cell-based, mouse
# Experimental: FIG. 1(a) MEFs infected with the four factors (Oct4, Sox2, Klf4 and c-Myc) were treated with various chemicals for a week, the percentage of Oct4-GFP positive cells induced was measured through FACS analysis, and compared to infected MEFs without treatment or treated with DMSO (the solvent for Dexamethasone, SAHA and TSA). The chemicals used were: 5′-azaC (2 μM), dexamethasone (dex, 1 μM), 5′-azaC (2 μM) together with dexamethasone (1 μM), VPA (2 mM), SAHA (5 μM) and TSA (20 nM). n=4 for each treatment. For all figures in this study, standard deviations are indicated by error bars, and P values by two-tailed student t-test less than 0.05, 0.01 and 0.001 are indicated by one, two and three asterisks respectively.
# To quantitate reprogramming efficiency, we established an assay based on Fluorescence-Activated Cell Sorting (FACS) analysis using an Oct4-GFP transgenic reporter, where the expression of the green fluorescent protein (GFP) is controlled by the promoter and enhancers of Oct4, a pluripotent marker gene^14.
# MEFs were derived from e13.5 embryos hemizygous for the Oct4-GFP transgenic allele. Embryos were sexed by inspecting gonads for the pattern of Oct4-GFP expression. Gonads and internal organs were removed before processing the embryos for MEF isolation. To generate iPS cells that can be identified in mouse chimeras after blastocyst injection, we derived MEFs from e13.5 embryos that are hemizygous for Oct4-GFP and heterozygous for the Rosa26-lacZ reporter allele. MEFs were grown in DMEM supplemented with 10% FBS, L-glutamine, penicillin/streptoMycin, nonessential amino acids, and sodium pyruvate. MEFs in early passages (up to passage 5) were used for generation of iPS cells.
# Moloney-based retroviral vector (pMXs) containing the murine complementary DNAs of Oct4, Sox2, c-Myc, and Klf4 were obtained from Addgene^1. These plasmids were co-transfected into 293T cells with packaging vectors (pUMVC and pCMV-VSVG), and viral supernatants were collected 48 hours post-transfection to infect MEFs. Two to three rounds of infection were performed during a 48 hour period. The first day after viral supernatants were removed was defined as 0 day post-infection. Infected MEFs were subsequently cultured in mouse ES cell media (Knockout DMEM supplemented with 15% Hyclone FBS, L-glutamine, penicillin/streptoMycin, nonessential amino acids, β-mercaptoethanol, and with 1000 U/ml LIF), and treated with small molecules or growth factors for a week starting from 1 or 2 days post-infection. […] All conditions were tested in quadruplicates.
# [2] = tested on: MEFs infected with the four factors (Oct4, Sox2, Klf4 and c-Myc); test: cells; assay type: cell-based, mouse; settings: 4-factor infected MEFs
molecule,measurement,setting,value
"CC(/C=C/C(=O)NO)=C\[C@@H](C)C(=O)c1ccc(N(C)C)cc1 [TSA, trichostatin A]",percentage of GFP positive cells,"[1]; 20 nM, 4-factor infected MEFs",approximately 1.535% (±0.618%)
COc1cccc(-c2cc(=O)c3ccccc3o2)c1N [PD98059],effect on reprogramming efficiency,[2]; 40 μM,no significant effects
C[C@@H]1C[C@H]2[C@@H]3CCC4=CC(=O)C=C[C@]4(C)[C@@]3(F)[C@@H](O)C[C@]2(C)[C@@]1(O)C(=O)CO [dexamethasone],improvement of the effect of 5′-azaC when used in combination,[1],2.6 fold
same,effect on reprogramming efficiency,"[1]; 1 μM alone, 4-factor infected MEFs",no significant effect
N#CC(=C(/N)Sc1ccccc1N)/C(C#N)=C(\N)Sc1ccccc1N [U0126],effect on reprogramming efficiency,[1],no significant effects
CC(=O)O/N=C1/C(=C2/C(=O)Nc3cc(Br)ccc32)Nc2ccccc21 [BIO-Acetoxime],effect on reprogramming efficiency,"[1]; 2 μM, 4-factor infected MEFs",no significant effect
Wnt3a,effect on reprogramming efficiency,[2]; 100 ng/ml,no significant effect
"O=C(CCCCCCC(=O)Nc1ccccc1)NO [SAHA, suberoylanilide hydroxamic acid]",improvement over the control DMSO treatment,"[1]; 5 μM, 4-factor infected MEFs",10 fold
same,percentage of GFP positive cells,"[1]; 5 μM, 4-factor infected MEFs",approximately 0.198% (±0.102%)
B1,effect on reprogramming efficiency,[2]; 100 ng/ml,had no effect
